The source of these data is patent US8546579B2, “Bicycloheteroaryl compounds as P2X7 modulators and uses thereof” (Evotec (US) Inc., priority 2006, dated 2013).

As usually defined, the IC50 is the concentration at which inhibition is half-maximal.

In the assay the target is T1, P2X7 receptor (Homo sapiens, UniProt Q99572).
T1 construct: host or cells: THP-1 cells differentiated with LPS and IFN-γ
T1 sequence (Q99572 1-595): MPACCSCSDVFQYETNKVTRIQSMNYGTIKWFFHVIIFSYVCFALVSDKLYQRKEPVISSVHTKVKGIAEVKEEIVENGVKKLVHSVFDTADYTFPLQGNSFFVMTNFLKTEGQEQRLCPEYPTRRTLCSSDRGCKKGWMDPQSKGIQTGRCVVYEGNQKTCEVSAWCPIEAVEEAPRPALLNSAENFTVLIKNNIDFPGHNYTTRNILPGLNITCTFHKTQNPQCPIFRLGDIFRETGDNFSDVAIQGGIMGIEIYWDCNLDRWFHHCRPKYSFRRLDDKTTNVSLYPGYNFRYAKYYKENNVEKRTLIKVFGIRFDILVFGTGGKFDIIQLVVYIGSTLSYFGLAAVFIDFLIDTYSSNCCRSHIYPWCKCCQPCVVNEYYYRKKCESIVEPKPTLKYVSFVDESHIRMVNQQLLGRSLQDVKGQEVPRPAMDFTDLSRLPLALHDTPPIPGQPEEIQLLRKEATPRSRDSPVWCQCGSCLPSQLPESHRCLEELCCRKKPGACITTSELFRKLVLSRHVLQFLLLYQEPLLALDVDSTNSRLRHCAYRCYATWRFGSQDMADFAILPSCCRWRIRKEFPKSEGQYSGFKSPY
As to the kind of experiment: IL-1β release assay in differentiated THP-1 cells stimulated with BzATP (Example 9). Particulars: for inhibition: THP-1, read-out: IL-1β % Inhib.; for inhibition at 0.3 µM: 0.3 μM compound, read-out: IL-1β % Inhib. @ 0.3 μM; for inhibition at 0.3 µM / inhibition at 0.1 µM: differentiated THP-1 cells, BzATP 250 uM; for IC50: THP-1 cells, BzATP-stimulated IL-1β release, four parameter logistic fit; for inhibition at 0.1 µM: 0.1 μM compound. Also noted: inhibition: dose or concentration left out as unconfirmed. The format is cell-based. The method, boiled down: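 THP-1 cells differentiated 16 h with LPS and IFN-γ (100 ng/mL each), re-primed 2 h with LPS, then compound-pretreated 30 min before 250 uM BzATP for 45 min. Supernatant IL-1β quantified by ELISA; background-adjusted percent inhibition fitted to four-parameter logistic for IC50.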

Setting [1] is: "*" class symbols, read-out: IL-1β % Inhib. ("*" symbols: at 0.1 μM).
Setting [2] is: '*' class symbols, read-out: IL-1β % Inhib. (asterisk classes, 0.1 μM).

SMILES strings stand for the structures. Like-named read-outs stand apart in the source and are kept apart here.

For `O=C(Nc1cccc2c(=O)n(CCN3CCOCC3)ccc12)c1cccc2ccccc12` [Compound 1410], the inhibition lay within 0 to 25%.
For `Cc1ccc(C(=O)Nc2cccc3c(=O)n(Cc4cccnc4)ccc23)cc1Cl` [Compound 1451], the inhibition is 0 to 25%.
For the compound `CC(C)(C)OC(=O)N1CCC[C@@H]1Cn1ccc2c(NC(=O)Cc3ccc(Cl)c(C(F)(F)F)c3)cccc2c1=O` [Compound 1620], the IC50 is 41.1 nM. In addition, under “"+" class symbols”, the inhibition at 0.3 µM is no less than 76%.
`COc1ccc(CC(=O)Nc2cccc3c(=O)n(CCN(C)C)ccc23)cc1` [Compound 1001] registered an IC50 of 240 nM. The inhibition at 0.3 µM ('+' class symbols) lay within 51 to 75%.
Turning to `COc1ccc(CC(=O)Nc2cccc3c(=O)n(CC4CCOCC4)ccc23)cc1OC` [Compound 1103], the inhibition at 0.3 µM ('+' class symbols) lay in the range of 0 to 25%.
As to `COc1cc(CC(=O)Nc2cccc3c(=O)n(CCCN4CCCC4=O)ccc23)cc(OC)c1` [Compound 1528], the inhibition fell in the range of 0 to 25%.
As to `Cc1ccc(CCC(=O)Nc2cccc3c(=O)n(Cc4ccc(OC(F)(F)F)cc4)ccc23)c(C)c1` [Compound 1609], the inhibition at 0.1 µM under setting [1] fell in the range of 0 to 25%.
On to `O=C(CCc1ccc2c(c1)OCO2)Nc1cccc2c(=O)n(CCCN3CCCC3=O)ccc12` [Compound 1502], for which the inhibition lay in the range of 0 to 25%.
As to `COc1cc(CC(=O)Nc2cccc3c(=O)n(CC4CCN(C)CC4)ccc23)cc(OC)c1` [Compound 1477], the inhibition is 0 to 25%.
Turning to `CC(C)(C)Cn1ccc2c(NC(=O)Cc3csc4ccccc34)cccc2c1=O` [Compound 1274], the inhibition at 0.3 µM (symbols + to ++++) is 0 to 25%.
Turning to `CC(C)Cc1ccc(C(=O)Nc2cccc3c(=O)n(CCN4CCOCC4)ccc23)cc1` [Compound 1243], the inhibition at 0.3 µM (symbols + to ++++) lay within 0 to 25%.
Regarding `Cc1ccc(C(=O)Nc2cccc3c(=O)n(Cc4ccc(OC(F)(F)F)cc4)ccc23)cc1Cl` [Compound 1591], the inhibition is 0 to 25%.
Same read-out and setting: to `COc1ccc(OC)c(CC(=O)Nc2cccc3c(=O)n(C)ccc23)c1` [Compound 1422] belongs 0 to 25%.
Regarding `COCCn1ccc2c(NC(=O)CC3(O)CC(C)(C)CC(C)(C)C3)cccc2c1=O` [Compound 1393], it took 77.8 nM to reach half-maximal inhibition (IC50). For the same compound, the inhibition at 0.3 µM (symbols + to ++++) was no less than 76%.
Consider `O=C(Nc1cccc2c(=O)n(CC3CCOCC3)ccc12)c1ccc2ccccc2c1` [Compound 1098], for which the inhibition at 0.3 µM ('+' class symbols) was 0 to 25%.
As to `O=C(Nc1cccc2c(=O)n(CCN3CCOCC3)ccc12)c1ccc2c(c1)OCCCO2` [Compound 1225], the inhibition at 0.3 µM (symbols + to ++++) was 0 to 25%.
Same read-out and setting: the value for `CC(C)(C)Cn1ccc2c(NC(=O)Cc3ccccc3F)cccc2c1=O` [Compound 1252] was 0 to 25%.
For the compound `Cc1ccc(C)c(C(=O)Nc2cccc3c(=O)n(CCCN4CCCC4=O)ccc23)c1` [Compound 1510], the inhibition was in the range of 0 to 25%.
`CC(=O)OCCn1ccc2c(NC(=O)Cc3ccc(Cl)c(C(F)(F)F)c3)cccc2c1=O` [Compound 1380, Acetic acid 2-{5-[2-(4-chloro-3-trifluoromethyl-phenyl)-acetylamino]-1-oxo-1H-isoquinolin-2-yl}-ethyl ester] returned an IC50 of 5.33 nM. For the setting “symbols + to ++++”, the inhibition at 0.3 µM was no less than 76%.
Regarding `O=C(Nc1cccc2c(=O)n(Cc3ccc(OC(F)(F)F)cc3)ccc12)[C@@]12C[C@@H]3C[C@@H](C[C@@H]1C3)C2` [Compound 1594], the inhibition was 0 to 25%.
On to `COc1ccc(C(=O)Nc2cccc3c(=O)n(Cc4ccc(OC(F)(F)F)cc4)ccc23)cc1C` [Compound 1608], for which the inhibition at 0.1 µM under setting [1] was 0 to 25%.
For `CC(C)(C)Cn1ccc2c(NC(=O)CCCc3ccccc3)cccc2c1=O` [Compound 1263], the inhibition at 0.3 µM (symbols + to ++++) fell in the range of 0 to 25%.
With `CN1CCC(Cn2ccc3c(NC(=O)CCc4ccc(Cl)cc4)cccc3c2=O)CC1` [Compound 1485], the inhibition is 0 to 25%.
In the case of `CCOc1cccc(C(=O)Nc2cccc3c(=O)n(CCN4CCOCC4)ccc23)c1` [Compound 1044], the inhibition at 0.3 µM ('+' class symbols) lay within 0 to 25%.
Turning to `CCOc1ccccc1CC(=O)Nc1cccc2c(=O)n(CC(C)(C)C)ccc12` [Compound 1280], the inhibition at 0.3 µM (symbols + to ++++) fell in the range of 0 to 25%.
With `CN(C)CCn1ccc2c(NC(=O)c3cc(Cl)cc(Cl)c3)cccc2c1=O` [Compound 1143], the inhibition at 0.3 µM ('+' class symbols) was 0 to 25%.
With `O=C(Nc1cccc2c(=O)n(Cc3cccnc3)ccc12)c1cccc2c1OCCO2` [Compound 1363], the inhibition at 0.3 µM (symbols + to ++++) lay in the range of 0 to 25%.
Still for that read-out and setting: to `Cn1ccc2c(NC(=O)c3cccc4c3OCCO4)cccc2c1=O` [Compound 1304] belongs 0 to 25%.
With `CN(C)CCn1ccc2c(NC(=O)CCc3ccccc3Cl)cccc2c1=O` [Compound 1037], under “'+' class symbols”, the inhibition at 0.3 µM was in the range of 0 to 25%.
In the case of `O=C(Nc1cccc2c(=O)n(Cc3cccnc3)ccc12)c1ccccc1Cl` [Compound 1344], the inhibition at 0.3 µM (symbols + to ++++) fell in the range of 26 to 50%.
The compound `CN(C)CCn1ccc2c(NC(=O)Cc3ccc(Cl)c(C(F)(F)F)c3)cccc2c1=O` [Compound 1385] registered an IC50 of 152 nM. For the same compound, the inhibition at 0.3 µM (symbols + to ++++) is no less than 76%.
Regarding `COCCn1ccc2c(NC(=O)c3ccc(Cl)c(C)c3)cccc2c1=O` [Compound 1071], the inhibition at 0.3 µM ('+' class symbols) fell in the range of 0 to 25%.
For `Cc1cccc(CCC(=O)Nc2cccc3c(=O)n(CC4CCN(C)CC4)ccc23)c1` [Compound 1488], the inhibition fell in the range of 0 to 25%.
With `COCCn1ccc2c(NC(=O)c3cccc(C)c3)cccc2c1=O` [Compound 1428], the inhibition was 0 to 25%.
For the compound `Cc1ccccc1C(=O)Nc1cccc2c(=O)n(CCN3CCOCC3)ccc12` [Compound 1191], the inhibition at 0.3 µM ('+' class symbols) was 0 to 25%.
The same measure, in the same setting: to `CN(C)CCn1ccc2c(NC(=O)c3cc4ccccc4o3)cccc2c1=O` [Compound 1162] belongs 0 to 25%.
The compound `CC(=O)OCCn1ccc2c(NC(=O)Cc3ccc(Cl)c(Cl)c3)cccc2c1=O` [Compound 1023] came in with an IC50 of 53.5 nM. The inhibition at 0.3 µM ('+' class symbols) was no less than 76%.
As to `Cc1cccc(C(=O)Nc2cccc3c(=O)n(CCCN4CCCC4=O)ccc23)c1Cl` [Compound 1544], the inhibition lay in the range of 0 to 25%.
As for `Cc1ccc(Cl)cc1C(=O)Nc1cccc2c(=O)n(CC(C)(C)C)ccc12` [Compound 1283], where the note is “symbols + to ++++”, the inhibition at 0.3 µM is 26 to 50%.
As to `COCCn1ccc2c(NC(=O)c3ccc(C)cc3C)cccc2c1=O` [Compound 1426], the inhibition fell in the range of 0 to 25%.
`CN(C)CCn1ccc2c(NC(=O)CCCc3ccccc3)cccc2c1=O` [Compound 1161]: the inhibition at 0.3 µM ('+' class symbols) was 0 to 25%.
On to `COc1ccc(C(=O)Nc2cccc3c(=O)n(CCN4CCOCC4)ccc23)cc1C` [Compound 1240], for which the inhibition at 0.3 µM (symbols + to ++++) lay within 26 to 50%.
Take `O=C(CCCc1ccccc1)Nc1cccc2c(=O)n(Cc3ccc(OC(F)(F)F)cc3)ccc12` [Compound 1586]: the inhibition lay within 0 to 25%.
For the compound `CC(C(=O)Nc1cccc2c(=O)n(CCN3CCOCC3)ccc12)c1ccccc1` (centres unmarked) [Compound 1200], the inhibition at 0.3 µM (symbols + to ++++) is 0 to 25%.
`CN(C)CCn1ccc2c(NC(=O)CC3(O)CCCCCC3)cccc2c1=O` [Compound 1388] registered an IC50 greater than 1000 nM. The inhibition at 0.3 µM (symbols + to ++++) lay in the range of 0 to 25%.
Regarding `Cc1cc(C)c(CC(=O)Nc2cccc3c(=O)n(Cc4cccnc4)ccc23)c(C)c1` [Compound 1076], the inhibition at 0.3 µM ('+' class symbols) was in the range of 0 to 25%.
For `CC(C)C(C(=O)Nc1cccc2c(=O)n(CCN(C)C)ccc12)c1ccc(Cl)cc1` (centres unmarked) [Compound 1612], the IC50 is greater than 1000 nM. For the same compound, the inhibition at 0.3 µM ("+" class symbols) was 0 to 25%.
As for `CN(C)CCn1ccc2c(NC(=O)c3ccc(-c4ccccc4)o3)cccc2c1=O` [Compound 1035], the inhibition at 0.1 µM under setting [2] was 0 to 25%.
`CC(C)(C)Cn1ccc2c(NC(=O)C3C[C@@H]4CC[C@H]3C4)cccc2c1=O` (some centres unmarked) [Compound 1277]: where the note is “symbols + to ++++”, the inhibition at 0.3 µM is no less than 76%.
`Cc1ccccc1CCC(=O)Nc1cccc2c(=O)n(C)ccc12` [Compound 1057]: the inhibition at 0.1 µM under setting [2] lay within 0 to 25%.
For `CN(C)CCn1ccc2c(NC(=O)CC3CCN(C(=O)OC(C)(C)C)CC3)cccc2c1=O` [Compound 1010], the IC50 is greater than 1000 nM. Where the note is “'+' class symbols”, the inhibition at 0.3 µM fell in the range of 0 to 25%.
Regarding `CC(C(=O)Nc1cccc2c(=O)n(CC3CCOCC3)ccc12)c1ccccc1` (centres unmarked) [Compound 1093], the inhibition at 0.3 µM ('+' class symbols) lay within 0 to 25%.
Turning to `COCCn1ccc2c(NC(=O)Cc3ccc4c(c3)OCO4)cccc2c1=O` [Compound 1321], the inhibition at 0.3 µM (symbols + to ++++) is 0 to 25%.
Regarding `COc1ccc(CC(=O)Nc2cccc3c(=O)n(CCCN4CCCC4=O)ccc23)cc1` [Compound 1522], the inhibition was 0 to 25%.
`CC(=O)OCCn1ccc2c(NC(=O)CCc3cc(C(F)(F)F)ccc3C(F)(F)F)cccc2c1=O` [Compound 1374]: the midpoint of inhibition, the IC50, lay at 40.6 nM. The inhibition at 0.3 µM (symbols + to ++++) was no less than 76%.
